{"source": "patent US12295949B2", "about": "“Treatment of the gastrointestinal tract with dimeric naphthalimide compounds” (Alumend, LLC, priority 2022, dated 2025)", "key": {"[1]": {"test_system": "ex-vivo healthy swine arterial tissue", "assay": "Fluorescence microscopy of ex-vivo arterial tissue cross-sections after delivery of 10-8-10 Dimer", "assay_type": "in vitro ADME", "settings": "2 mg/mL for five minutes, 60x fluorescence microscopy", "description": "FIGS. 32A and B are fluorescence microscopy images of ex-vivo healthy swine arterial tissue cross-section delivered with 2 mg/mL 10-8-10 Dimer for five minutes; wherein (A) is a fluorescence image at 60× magnification and (B) is at 60× magnification with fluorescence and greyscale overlay. FIGS. 32A and B are 60× fluorescence microscopy images of ex-vivo healthy swine arterial tissue cross-sections treated with 2 mg/mL 10-8-10 Dimer for five minutes; wherein (A) is a fluorescence image and (B) is a fluorescence and greyscale overlay."}, "[2]": {"test_system": "esophageal tissue in a healthy swine in vivo esophagus", "assay": "Crosslink healthy in vivo esophagus at two power levels (delivery, soak, balloon dilatation, light activation)", "set-up": "species or system Yorkshire Cross swine", "excerpt": "More specifically, this study evaluated the logistics for esophageal placement of compound I(a) with the use of contrast media, the crosslinking effects of compound I(a), and acute retention of dilation in an in vivo swine model.\nAn Olympus GIF-140 Endoscope was used in this study. Fluoroscopy was utilized throughout the procedures for confirmation of equipment placement, sample delivery, and removal.\nA 60-65 kg Yorkshire Cross (18P118) was used to establish the logistical techniques of the procedure. The animal was fasted for 24 hours prior to the procedure commencing. Post anesthesia swine 18P118 was positioned supinely (on its back) with the surgical table flat. A lavage was performed to flush any remaining contents from the esophagus and stomach. The endoscope was lubricated with a dime size amount of water based Astroglide and inserted into the mouth, passed by the epiglottis, around the pharyngeal diverticulum, through the esophagus and into the stomach. At insertion, the esophagus was partially open, (<5 mm diameter) circular and smooth. The esophagus formed around the catheter and the endoscope inserted instruments, ranging from 4 mm to 12.74 mm in diameter. The endoscope incremental measurements were used to determine the endoscope placement from the front incisor (zero reference point) to the lower esophageal sphincter (71 cm) with the designated working area being between 30 and 60 cm. The endoscope was maintained in the esophagus for the entire procedure.\nUsing the endoscope, the Edwards Fogarty occlusion catheter and the Vista Brite tip guide catheter were guided down the esophagus and positioned at the 45 cm mark. Positioning them simultaneously, then holding during inflation prevented slippage of the catheters during balloon inflation. The mucosa is loosely attached to the muscularis; the movement of any device in contact with the mucosa influenced the positioning of all inserted devices. […]\nOnce the volume required to fill the treatment zone was determined the contrast medium was removed. […]"}, "[3]": {"test_system": "ex-vivo healthy swine esophageal tissue", "assay": "Fluorescence microscopy of ex-vivo esophageal tissue cross-section after delivery of 10-8-10 Dimer", "assay_type": "in vitro ADME", "description": "FIGS. 34A and B are fluorescence microscopy images of ex-vivo healthy swine esophageal tissue cross-section delivered with 4 mg/mL 10-8-10 Dimer for five minutes; wherein (A) is a fluorescence image at 4× magnification, and (B) is at 4× magnification with the fluorescence and greyscale overlay). FIGS. 34A and B are 4× fluorescence microscopy images of ex-vivo healthy swine esophageal tissue cross-section treated with 4 mg/mL 10-8-10 Dimer for five minutes; wherein (A) is a fluorescence image, and (B) is the fluorescence and greyscale overlay. As shown therein, The penetration of 10-8-10 Dimer into ex-vivo esophageal tissue is also vastly different from arterial tissue penetration. […] Treatment with 2 mg/ml of 10-8-10 Dimer was ineffective. In contrast to the treatment of arterial tissue, the 10-8-10 Dimer was efficacious at a concentration 100% greater."}, "[4]": {"test_system": "esophageal strictures generated by endoscopic mucosal resection (EMR)", "assay": "Esophageal stricture (endoscopic mucosal resection) formation and treatment with compound I(a) plus PTA with light in minipigs", "assay_type": "in vivo, Yucatan minipigs", "excerpt": "Five healthy Yucatan minipigs (20-28 kg) were enrolled in the study. For the EMR procedure, each animal was monitored and maintained under anesthesia throughout the duration of the procedure. Each animal was placed in a supine position and elevated to a 5-12 degrees reverse Trendelenburg position, to aid in keeping gastric fluids from coming into the EMR procedural area. A water base lubricant (Astroglide) was used to aid at every insertion of the endoscope.\nThe upper GI was intubated and surveyed for abnormalities and gastric fluid content via a GIF-XQ140 endoscope. Of the five animals, three animals underwent lavage to remove excess fluid and debris from the esophagus and gastric lumen by washing with saline and suctioning out fluid/debris. A fluoroscopic esophagogram was taken of the target area with the endoscope in place (FIG. 1). The distal tip was measured with a calibrated digital caliper and the measurement was used to calibrate the fluoroscopic measurement tool. […] All representative fluoroscopic and endoscopic imagery are from animal 19P39 unless otherwise stated.\nThe scope tip was positioned within ±3 cm of the target site. Suction was applied through the gastroscope to visualize the esophageal mucosa at the distal attachment (DA) and to visualize the injection range to capture approximately three-fourths of the esophageal lumen at the target site. The needle from the disposable EMR kit was inserted through the endoscope biopsy channel and into the endoscope field of view (FIG. 2A). The injector slider was pushed until it clicked into position to extend the needle from the sheath. A 10 mL syringe with saline was connected to the injector port. Suction was applied and the injector needle advanced to pierce the target mucosa and to inject a bolus of saline (FIG. 2B). The target area was injected with 0.5 mL to 2.0 mL of saline multiple times to reach a coverage of approximately three-fourths circumference of the target area. Following injections suction was released, and the needle withdrawn from the biopsy channel for insertion of the snare.\nThe snare was used to remove the blistered mucosal tissue from the treated area. The snare was retracted and inserted into the biopsy channel and advanced into the field of view with the distal sheath. The snare was connected to the electrosurgical unit (Olympus PSD-20). The electrosurgical unit has two settings, one setting is CUT, which is used to cut the tissue and the other setting is COAG, which is used to cauterize the tissue. The snare loop tip was slowly extended approximately 5-10 mm beyond the DA, and CUT was activated marking the base of the tissue bolus by cauterizing the mucosa (FIG. 3A). Suction was used to draw the tissue bolus partially into the DA, and CUT was activated to separate the target mucosa from the submucosa/muscularis. The snare loop was also used as a lasso to remove the partially resected mucosa by cinching the snare closed around the resection (FIG. 3B) and activating the CUT pedal and COAG pedal as needed. The tissue that was not easily removed with the snare was removed with a coagrasper (FIG. 3C). The natural contraction movements of the esophagus posed some difficulty with maintaining a perfect depth to only exposing the submucosal tissue and to maintaining a consistent resection length throughout the resected area. For some animals there were portions of muscularis tissue exposed and some spiraling to the resected area due to the esophageal contractions (FIG. 4). Following the EMR a post procedural fluoroscopic esophagogram (FIG. 5) was taken and the animal recovered from anesthesia.\nThe EMR in the target area span approximately 270 degrees circumference and less than 2 cm wide.\nOn Day 21, post stricture induction, animals underwent anesthesia for evaluation of stricture formation and for stricture treatment. No lavage was needed to the esophagus or gastric lumen to complete the treatment on any of the animals. […]"}, "[5]": {"settings": "4 mg/mL for five minutes, 4x fluorescence microscopy"}, "[6]": {"settings": "Study Day 21, fluoroscopic, PTA + compound I(a) w/light, one row per animal"}, "[7]": {"settings": "Study Day 49 necropsy, cross-section of esophagus, compound I(a) + PTA w/ light, one row per animal"}}, "note": "Several values for one entry are separate records, joined by “and”; a condition that tells them apart may be missing. Identical values can stand only once. Entries after “also recorded” stand apart in the source; their conditions may differ.", "data": [{"smiles": "NCCOCCOCCNc1ccc2c3c(cccc13)C(=O)N(CCOCCOCCN1C(=O)c3cccc4c(NCCOCCOCCN)ccc(c34)C1=O)C2=O", "note": "[compound I(a)]", "values": [{"measurement": "penetration into arterial tissue (fluorescence)", "setting": "[1]", "result": "penetrated through the arterial intima and into the media"}, {"measurement": "crosslinking of the esophageal tissue (esophagus open at treated sites)", "setting": "[2]; 10 mg/mL, 10 min soak, balloon dilatation, laser 74 mW/cm2 (site A) or 32 mW/cm2 (sites B, C) for 2 minutes", "result": "indications of potential crosslinking were seen at multiple sites; also recorded: opening at sites A, B and C indicate a crosslinking of the esophageal tissue"}, {"measurement": "penetration of esophageal tissue (yellow coloration of the tissue)", "setting": "[2]; 8 mL of compound I(a) 10 mg/mL in PBS, 10 minutes soak, treatment sites A, B, C, endoscopic observation", "result": "penetration was observed; also recorded: yellow coloration of the tissue is indicative of compound I(a) penetration; also recorded: yellow coloration of the esophagus confirmed delivery"}, {"measurement": "irritation of the esophagus on endoscopy or necropsy examination", "setting": "[2]; post treatment, entire length of the esophagus, slight irritation at site C attributed to TAPAS catheter", "result": "No significant irritation"}, {"measurement": "treatment of esophageal tissue at 2 mg/ml", "setting": "[3]; 2 mg/ml", "result": "ineffective"}, {"measurement": "fluorescence in the submucosa or muscularis", "setting": "[3]; [5]", "result": "no significant fluorescence"}, {"measurement": "location of 10-8-10 Dimer fluorescence in esophageal tissue", "setting": "[3]; [5]", "result": "preponderance of 10-8-10 Dimer fluorescence is in the epithelium"}, {"measurement": "treatment of esophageal tissue at higher concentration", "setting": "[3]; concentration 100% greater than for arterial tissue (4 mg/mL vs 2 mg/mL)", "result": "efficacious"}, {"measurement": "penetration at stricture site (yellow coloration of the esophagus)", "setting": "[4]; 10 mg/ml in PBS, 10 minutes soak, Day 21", "result": "Yellow coloration of the esophagus was observed indicating penetration"}, {"measurement": "abnormalities of the entire esophagus via endoscope imaging", "setting": "[4]; Day 21 post treatment, compound I(a) plus PTA balloon with light animals, other than the stricture area", "result": "no abnormalities were seen"}, {"measurement": "re-epithelialization (pathology report)", "setting": "[4]; Day 49 microscopic evaluation, compound I(a) plus PTA balloon with light", "result": "complete"}, {"measurement": "Diameter of Stricture (mm) 0 min. post TX", "setting": "[4]; Study Day 21, fluoroscopic, PTA + compound I(a) (10 mg/ml in PBS, 10 min soak) w/light 74 mW/cm2, one row per animal", "result": "15.88 mm and 13.0 mm and 12.4 mm"}, {"measurement": "Diameter of Stricture (mm) 30 min. post TX", "setting": "[4]; [6]", "result": "17.13 mm and 7.5 mm and 14.8 mm"}, {"measurement": "Diameter of Stricture (mm) 60 min. post TX", "setting": "[4]; [6]", "result": "13.8 mm and 8.5 mm and 10.9 mm"}, {"measurement": "Length of Stricture (mm) Endoscopic scan post TX", "setting": "[4]; Study Day 21, post treatment, PTA + compound I(a) w/light, one row per animal", "result": "30 mm (2×) and 17 mm"}, {"measurement": "Length of Stricture (mm) Fluoroscopic", "setting": "[4]; Study Day 49 (four weeks post treatment), compound I(a) + PTA w/light, one row per animal", "result": "12.6 mm (2×) and 12.8 mm"}, {"measurement": "Stricture Length", "setting": "[4]; [7]", "result": "3-11 millimeters and 5 millimeters and 25 millimeters"}, {"measurement": "Stricture Width", "setting": "[4]; [7]", "result": "12 millimeters and 10 millimeters and 7 millimeters"}, {"measurement": "Diameter of Stricture Post TX", "setting": "[4]; Table 3, Study Day 49 (four weeks post treatment), fluoroscopic, compound I(a) + PTA w/light, one row per animal", "result": "4.9 mm and 6.0 mm and 7.4 mm"}, {"measurement": "Diameter of Stricture Post TX", "setting": "[4]; Table 10, post treatment, 29 days apart, compound I(a) + PTA w/light, one row per animal, in mm", "result": "6.0 and 7.4 and 4.9"}, {"measurement": "percent gain at the stricture site post-treatment", "setting": "[4]; all compound I(a) plus PTA balloon with light treated animals, Table 10", "result": "increase in percent gain"}, {"measurement": "% Stricture Diameter Change Before and Post Treatment", "setting": "[4]; before and post treatment 29 days apart, compound I(a) + PTA w/light, one row per animal", "result": "22.4% and 94.7% and 169%"}, {"measurement": "restoring the esophagus to a healthier diameter and movement", "setting": "[4]; compound I(a) plus PTA balloon with light, in comparison with PTA balloon only treatment (19P38)", "result": "better success"}, {"measurement": "retention of dilation", "setting": "[4]; four weeks after treatment with compound I(a) crosslinking", "result": "demonstrated retention of dilation"}]}]}
